In ChEMBL document CHEMBL5214967, “Natural Product-Inspired Targeted Protein Degraders: Advances and Perspectives” (J Med Chem, 2022):

Key:
MCF7 = test: cells; conditions: Homo sapiens, MCF7, 72 h
Description: Antiproliferative activity against human MCF7 cells incubated for 72 hrs by MTT assay

LNCaP = test: Cytotoxicity against human LNCap cells; assay type: functional, cell-based
[1] = target: Kelch-like ECH-associated protein 1/Cyclin-dependent kinase 9 (Homo sapiens, UniProt P50750+Q14145); test: PROTAC activity at Keap1/CDK9 in human MOLT4 cells measured after 16 hrs; assay type: cell-based; conditions: molt-4
Kelch-like ECH-associated protein 1/Cyclin-dependent kinase 9, sequence (P50750 whole entry): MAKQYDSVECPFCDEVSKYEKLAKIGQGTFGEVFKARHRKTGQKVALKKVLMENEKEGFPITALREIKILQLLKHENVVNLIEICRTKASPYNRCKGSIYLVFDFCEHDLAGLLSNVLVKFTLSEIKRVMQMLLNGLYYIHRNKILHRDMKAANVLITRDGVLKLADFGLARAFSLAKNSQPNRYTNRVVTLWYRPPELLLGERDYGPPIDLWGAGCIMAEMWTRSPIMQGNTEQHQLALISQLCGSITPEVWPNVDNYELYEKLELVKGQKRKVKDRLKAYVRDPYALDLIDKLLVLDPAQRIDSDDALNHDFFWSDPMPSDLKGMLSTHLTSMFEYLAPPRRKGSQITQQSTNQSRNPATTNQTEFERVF
Kelch-like ECH-associated protein 1/Cyclin-dependent kinase 9, sequence (Q14145 whole entry): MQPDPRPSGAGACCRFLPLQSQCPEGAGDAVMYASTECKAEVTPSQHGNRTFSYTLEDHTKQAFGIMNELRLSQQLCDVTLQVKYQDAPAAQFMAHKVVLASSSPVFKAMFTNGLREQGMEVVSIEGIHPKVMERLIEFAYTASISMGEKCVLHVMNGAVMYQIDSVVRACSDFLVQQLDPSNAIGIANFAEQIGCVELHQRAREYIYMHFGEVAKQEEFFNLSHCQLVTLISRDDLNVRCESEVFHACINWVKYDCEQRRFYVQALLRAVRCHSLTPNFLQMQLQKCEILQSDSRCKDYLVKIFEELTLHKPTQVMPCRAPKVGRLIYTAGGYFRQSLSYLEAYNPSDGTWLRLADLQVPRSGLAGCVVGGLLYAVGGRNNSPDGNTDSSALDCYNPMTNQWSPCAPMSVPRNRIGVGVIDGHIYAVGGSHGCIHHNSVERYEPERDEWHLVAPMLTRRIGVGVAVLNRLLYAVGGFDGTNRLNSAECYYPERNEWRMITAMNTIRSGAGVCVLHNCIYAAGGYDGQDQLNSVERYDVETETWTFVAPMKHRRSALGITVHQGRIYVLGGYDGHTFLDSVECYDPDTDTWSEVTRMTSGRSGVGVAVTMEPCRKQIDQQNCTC

CWR22R = test: Cytotoxicity against human 22Rv1 cells; assay type: functional, cell-based
DU-145 = test: Cytotoxicity against human DU-145 cells; assay type: functional, cell-based
HeLa = test: Cytotoxicity against human HeLa cells incubated for 72 hrs by CCK-8 assay; assay type: functional, cell-based
HFF-1 = test: Cytotoxicity against human HFF-1 cells incubated for 72 hrs by CCK-8 assay; assay type: functional, cell-based; conditions: HFF-1, 72 h
SU-DHL-1 = test: Cytotoxicity against human SU-DHL-1 cells incubated for 72 hrs by CCK-8 assay; assay type: functional, cell-based; conditions: SU-DHL-1, 72 h
HT-29 = test: Cytotoxicity against human HT-29 cells incubated for 72 hrs by CCK-8 assay; assay type: functional, cell-based; conditions: HT-29, 72 h
[2] = target: T1, 3-hydroxy-3-methylglutaryl-coenzyme A reductase (Homo sapiens, UniProt P04035); test: Inhibition of HMGCR (unknown origin)
T1 sequence (P04035 whole entry): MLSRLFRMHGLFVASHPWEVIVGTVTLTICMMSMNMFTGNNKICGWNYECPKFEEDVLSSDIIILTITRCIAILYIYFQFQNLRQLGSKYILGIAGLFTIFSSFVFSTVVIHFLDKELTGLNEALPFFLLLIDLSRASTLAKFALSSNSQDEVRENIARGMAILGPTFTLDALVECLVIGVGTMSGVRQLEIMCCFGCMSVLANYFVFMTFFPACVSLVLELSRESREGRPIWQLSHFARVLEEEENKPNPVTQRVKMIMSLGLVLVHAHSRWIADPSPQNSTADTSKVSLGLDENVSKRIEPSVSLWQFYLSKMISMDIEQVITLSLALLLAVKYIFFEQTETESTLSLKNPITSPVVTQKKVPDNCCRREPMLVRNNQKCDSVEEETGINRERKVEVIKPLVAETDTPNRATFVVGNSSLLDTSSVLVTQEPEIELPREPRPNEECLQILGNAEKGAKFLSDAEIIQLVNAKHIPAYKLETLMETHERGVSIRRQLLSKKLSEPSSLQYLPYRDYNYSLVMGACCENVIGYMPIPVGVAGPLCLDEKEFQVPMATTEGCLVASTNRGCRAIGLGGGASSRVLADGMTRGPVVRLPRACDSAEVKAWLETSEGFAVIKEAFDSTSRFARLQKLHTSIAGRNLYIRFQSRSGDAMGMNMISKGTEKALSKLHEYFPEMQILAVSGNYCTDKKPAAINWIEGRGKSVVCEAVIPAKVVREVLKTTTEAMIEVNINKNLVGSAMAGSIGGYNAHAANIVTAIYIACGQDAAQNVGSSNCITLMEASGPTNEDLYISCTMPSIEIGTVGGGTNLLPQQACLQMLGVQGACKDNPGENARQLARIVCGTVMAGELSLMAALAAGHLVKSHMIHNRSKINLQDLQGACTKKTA

[3] = target: T2, von Hippel-Lindau disease tumor suppressor/3-hydroxy-3-methylglutaryl-coenzyme A reductase (Homo sapiens, UniProt P04035+P40337); test: PROTAC activity at VHL/recombinant HMGCR in human HepG2 cells assessed as degradation of HMGCR measured at 0.1 uM after 16 hrs relative to control; assay type: cell-based
Target sequence in this assay (P40337 whole entry, looked up, one chain of several): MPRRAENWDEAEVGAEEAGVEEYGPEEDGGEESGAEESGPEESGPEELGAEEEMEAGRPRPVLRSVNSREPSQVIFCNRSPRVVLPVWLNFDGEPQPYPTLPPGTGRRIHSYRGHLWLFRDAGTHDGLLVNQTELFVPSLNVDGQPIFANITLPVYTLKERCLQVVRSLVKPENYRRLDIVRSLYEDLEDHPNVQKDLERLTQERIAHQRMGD

[4] = target: T2, von Hippel-Lindau disease tumor suppressor/3-hydroxy-3-methylglutaryl-coenzyme A reductase; test: PROTAC activity at VHL/recombinant HMGCR in human Insig-depletion HepG2 cells assessed as degradation of HMGCR measured after 16 hrs; assay type: cell-based
Target sequence in this assay (P40337 whole entry, one chain of several): as the sequence (P40337 whole entry, looked up, one chain of several) above

[5] = target: T2, von Hippel-Lindau disease tumor suppressor/3-hydroxy-3-methylglutaryl-coenzyme A reductase; test: PROTAC activity at VHL/recombinant HMGCR in human Insig-depletion HepG2 cells assessed as degradation of HMGCR measured at 1 uM after 16 hrs relative to control; assay type: cell-based
Target sequence in this assay (P40337 whole entry, looked up, one chain of several): as above

SK-MEL-5 = test: In vivo antitumor activity against human SK-MEL-5 cells xenografted in BALB/c nude mouse administered intraperitoneally every 2 days for 17 days; assay type: functional, organism-based
Protein cereblon/Basigin = Protein cereblon/Basigin (Homo sapiens, UniProt P35613+Q96SW2); test: PROTAC activity at CRBN/CD147 (unknown origin) assessed as degradation of CD147; assay type: protein assay
Protein cereblon/Basigin, sequence (P35613 whole entry): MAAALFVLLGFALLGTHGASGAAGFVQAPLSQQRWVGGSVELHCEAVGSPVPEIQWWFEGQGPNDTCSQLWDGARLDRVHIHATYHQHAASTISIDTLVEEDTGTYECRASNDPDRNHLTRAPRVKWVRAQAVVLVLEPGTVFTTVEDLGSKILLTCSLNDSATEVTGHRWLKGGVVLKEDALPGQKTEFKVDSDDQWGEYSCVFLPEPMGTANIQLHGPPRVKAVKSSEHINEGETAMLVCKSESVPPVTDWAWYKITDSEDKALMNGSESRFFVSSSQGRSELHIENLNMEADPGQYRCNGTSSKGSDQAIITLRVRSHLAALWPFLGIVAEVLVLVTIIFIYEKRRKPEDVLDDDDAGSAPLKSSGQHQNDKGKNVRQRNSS
Protein cereblon/Basigin, sequence (Q96SW2 whole entry): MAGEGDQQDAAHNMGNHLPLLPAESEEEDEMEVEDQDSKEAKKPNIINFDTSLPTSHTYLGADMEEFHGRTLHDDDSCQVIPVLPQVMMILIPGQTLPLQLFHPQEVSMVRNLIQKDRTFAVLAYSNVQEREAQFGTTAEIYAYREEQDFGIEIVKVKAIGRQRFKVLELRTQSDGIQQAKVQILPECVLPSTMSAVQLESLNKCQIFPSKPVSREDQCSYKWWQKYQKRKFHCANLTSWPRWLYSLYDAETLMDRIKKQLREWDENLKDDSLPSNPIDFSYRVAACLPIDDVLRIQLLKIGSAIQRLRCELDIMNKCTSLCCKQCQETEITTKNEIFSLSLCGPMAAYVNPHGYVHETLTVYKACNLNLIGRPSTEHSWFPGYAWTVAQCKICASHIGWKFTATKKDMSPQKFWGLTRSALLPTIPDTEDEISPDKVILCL

[6] = target: Cyclin-dependent kinase 9 (Homo sapiens, UniProt P50750); test: Inhibition of CDK9 (unknown origin) incubated for 1 hr by fluorescent polarisation based assay
Cyclin-dependent kinase 9, sequence (P50750 whole entry): as the sequence (P50750 whole entry) above

[7] = target: T1, 3-hydroxy-3-methylglutaryl-coenzyme A reductase; test: Degradation of HMGCR (unknown origin)
[8] = Antiviral activity against IAV WSN/33 infected in luciferase tagged HEK293T cells assessed as suppression of de novo viral replication incubated for 24 hr; assay type: functional, cell-based; conditions: Influenza A virus, WSN/33, HEK-293T

`COc1c(O)cc(O)c2c(=O)cc(-c3ccccc3)oc12` [WOGONIN] gave an IC50 (MCF7) of 30 nM.

With `COc1cc(/C=C/C(=O)N2CCC=CC2=O)cc(OC)c1OCCN1CCN(C(=O)CN2CCC(C(=O)Nc3ncc(SCc4ncc(C(C)(C)C)o4)s3)CC2)CC1` the EC50 (LNCaP) was 3.2 nM, the DC50 [1] was 9 nM and the EC50 (CWR22R) was 6.4 nM. It also gave an EC50 (DU-145) of 8.5 nM.

`Cc1ncsc1-c1ccc([C@H](C)NC(=O)[C@@H]2CC(OC(=O)CCCCn3cc(CNC(=O)CC[C@H](NC(=O)c4ccc(NCc5cnc6[nH]c(N)nc(=O)c6n5)cc4)C(=O)O)nn3)CN2C(=O)[C@@H](NC(=O)COCCCOCCNC(=O)C[C@@H]2N=C(c3ccc(Cl)cc3)c3c(sc(C)c3C)-n3c(C)nnc32)C(C)(C)C)cc1` (some centres undefined) showed an IC50 (HeLa) of 246 nM and an IC50 (HFF-1) greater than 10000 nM.

Work on `Cc1cc(Nc2ncc(N)c(Nc3ccccc3S(=O)(=O)C(C)C)n2)c(OC(C)C)cc1C1CCN(C(=O)CCCC(=O)N[C@@H](C(=O)N2C[C@H](OC(=O)CCCCn3cc(CNC(=O)CCC(NC(=O)c4ccc(NCc5cnc6nc(N)[nH]c(=O)c6n5)cc4)C(=O)O)nn3)C[C@H]2C(=O)N[C@@H](C)c2ccc(-c3scnc3C)cc2)C(C)(C)C)CC1` (some centres undefined) yielded an IC50 (SU-DHL-1) of 200 nM.

With `Cc1ncsc1-c1ccc([C@H](C)NC(=O)[C@@H]2CC(OC(=O)CCCCn3cc(CNC(=O)CC[C@H](NC(=O)c4ccc(NCc5cnc6[nH]c(N)nc(=O)c6n5)cc4)C(=O)O)nn3)CN2C(=O)[C@H](NC(=O)CCCCCCCCCCNCCCONC(=O)c2ccc(F)c(F)c2Nc2ccc(I)cc2F)C(C)(C)C)cc1` (some centres undefined) the IC50 (HT-29) was 436 nM.

With `Cc1ncsc1-c1ccc(CNC(=O)[C@@H]2C[C@@H](O)CN2C(=O)[C@H](NC(=O)CCCCCCCCCCNC(=O)OC2C[C@@H](C)C=C3C=C[C@H](C)[C@H](CC[C@@H](O)C[C@@H](O)CC=O)[C@H]32)C(C)(C)C)cc1` (some centres undefined) the IC50 [2] was 250 nM, the Emax [3] was 56% and the DC50 [4] was 120 nM. It also gave an Emax [5] of 76%.

In the case of `COC(=O)C1=CC[C@]23CC[C@H]([C@@]2(OC(C)=O)CC1)[C@](C)(/C=C/C=C(\C)C(=O)NCCNc1cccc2c1C(=O)N(C1CCC(=O)NC1=O)C2=O)OC3=O` (some centres undefined), the IC50 (SK-MEL-5) is reported as 6230 nM and the IC50 (Protein cereblon/Basigin) is reported as 6720 nM.

In the case of `O=C1CCC(N2C(=O)c3cccc(NC(=O)CCCCCCCn4cc(COc5c(O)cc(O)c6c(=O)cc(-c7ccccc7)oc56)nn4)c3C2=O)C(=O)N1` (centres undefined), the IC50 [6] is reported as 523 nM and the IC50 (MCF7) is reported as 17 nM.

With `CC(=O)N1N=CC2C[C@@]3(C)C(=CC[C@H]4[C@@H]5CC[C@H]([C@H](C)CCC(=O)N6CCOCC6)[C@@]5(C)CC[C@@H]43)C(C)(C)C21` (some centres undefined) the DC50 [7] was 220 nM.

In the case of `C/C(=C\CC/C(C)=C/C[C@]1(O)C(=O)c2c(O)cc(C)c3c(O)c(C)c(O)c(c23)C1=O)CC/C=C(\CO)CC[C@@H](O)C(C)(C)O`, the IC50 [8] is reported as 6600 nM.
